Source: patent publication US12037324B2, “Biarylmethyl heterocycles” (Université de Montréal, priority 2016, dated 2024)

Key:
AGTR1 [1] = biological target: T1, AGTR1 (Homo sapiens, UniProt P30556); test: DiscoveRx β-arrestin2 recruitment assay (enzyme complementation, Pathunter CHO-K1 AGTR1 β-arrestin cell line); assay type: cell-based; conditions: DiscoveRx β-arrestin2 recruitment; for DiscoveRx β-arrestin2 Ymax (%): maximal response
T1 construct: host or cells: Pathunter CHO-K1 AGTR1 β-arrestin cell line (CHO-K1)
T1 sequence (P30556 1-359): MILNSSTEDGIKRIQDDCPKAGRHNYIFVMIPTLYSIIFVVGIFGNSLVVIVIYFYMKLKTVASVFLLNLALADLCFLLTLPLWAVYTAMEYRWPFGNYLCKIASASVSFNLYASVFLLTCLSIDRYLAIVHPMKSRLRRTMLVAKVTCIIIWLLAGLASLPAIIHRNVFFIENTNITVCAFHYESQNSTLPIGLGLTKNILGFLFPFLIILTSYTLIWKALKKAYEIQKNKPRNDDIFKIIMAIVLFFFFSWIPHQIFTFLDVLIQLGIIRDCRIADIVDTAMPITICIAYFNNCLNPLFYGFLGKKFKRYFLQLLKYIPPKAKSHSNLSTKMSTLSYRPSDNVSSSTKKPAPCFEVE
Summary of the method: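 CHO-K1 cells expressing AGTR1 with β-arrestin2 enzyme-complementation reporter, plated 14-16 h ahead in 1% serum medium, then exposed to compounds for 90 min at 37° C. Chemiluminescence read after 1 h detection. EC50 (agonist) or IC50 (antagonist) from 4-parameter logistic fit; activity as percentage of All maximal effect.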

AGTR1 [2] = biological target: T1, AGTR1; test: DiscoveRx IP1 accumulation assay (HTRF), agonist mode, Pathunter CHO-K1 AGTR1 β-arrestin cell line; assay type: cell-based; conditions: for EC50: read-out: IP-1 EC50
Summary of the method: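 Agonist mode in CHO-K1 AGTR1 β-arrestin cells plated 14-16 h before; compounds at varying concentrations for 90 min at 37° C, IP1 accumulation read by HTRF (D2-conjugate and anti-IP1 cryptate, 20 min room temperature). EC50 from 4-parameter logistic fit; activity given as percentage of maximal AII effect.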

hAT1R [3] = biological target: T2, hAT1R (Homo sapiens, UniProt P30556); test: cell-based
T2 sequence (P30556 1-359): T1 sequence (P30556 1-359)

hAT1R [4] = biological target: T2, hAT1R; test: cell-based; conditions: agonist mode; for EC50: read-out: BRET P63 EC50
hAT1R [5] = biological target: T2, hAT1R; test: BRET β-arrestin2 biosensor assay, higher receptor expression (hAT1R 5 ng/well), HEK293 cells; assay type: cell-based; conditions: for EC50: High AT1R Expression
[6] = Low AT1R Expression, read-out: BRET β-Arrestin2 Low AT1R Expression EC50
[7] = section of the 42nd table ending at r951, example numbering restarts after the DiscoveRx section, read-out: β-arrestin2 EC50

SMILES	EC50 (AGTR1 [1]) [µM]	DiscoveRx β-arrestin2 Ymax (%) (AGTR1 [1])	IP-1 Ymax (%) (AGTR1 [2])	EC50 (AGTR1 [2]) [µM]	BRET β-Arrestin2 Low AT1R Expression Ymax (%) (hAT1R [3]; Low AT1R Expression)	EC50 (hAT1R [3]; [6]) [µM]	BRET P63 Ymax (hAT1R [4]) [%]	EC50 (hAT1R [4]) [µM]	EC50 (hAT1R [3]; [7]) [µM]	BRET β-Arrestin2 High AT1R Expression Ymax (%) (hAT1R [5])	EC50 (hAT1R [5]) [µM]
CCCCC1=NC2(CCOC2)C(=O)N1Cc1ccc(-c2cc(-c3ccccc3O)ccc2-c2nnn[nH]2)cc1 (single isomer, unassigned) [Example 150]	0.0137	45.6	17.2	0.0207	65.7	0.0769	14.6	0.105	–	–	–
CCCCC1=NC2(CCOC2)C(=O)N1Cc1ccc(-c2cc(-c3ccccc3O)ccc2-c2nnn[nH]2)cc1 (single isomer, unassigned) [Example 151]	0.0764	44.3	14.0	0.607	42.5	0.419	11.0	0.174	–	–	–
CCCCC1=NC2(CCOC2)C(=O)N1Cc1ccc(-c2cc(-c3cccc(C)c3)ccc2-c2nnn[nH]2)cc1 (single isomer, unassigned) [Example 152]	0.0116	28.6	7.0	0.0307	–	–	–	> 100	0.0218	–	–
CCCCC1=NC2(CCOC2)C(=O)N1Cc1ccc(-c2cc(-c3cccc(C)c3)ccc2-c2nnn[nH]2)cc1 (single isomer, unassigned) [Example 153]	0.0287	19.6	6.0	0.229	–	–	–	> 100	0.0541	–	–
CCCCC1=NC2(CCOC2)C(=O)N1Cc1ccc(-c2cc(-c3cc(C)ccn3)ccc2-c2nnn[nH]2)cc1 (single isomer, unassigned) [Example 154]	0.0141	48.7	14.4	0.0406	–	–	25.3	0.0577	0.0639	–	–
CCCC1=NC2(CCOC2)C(=O)N1Cc1ccc(-c2cc(-c3cccc(C)c3)ccc2-c2nnn[nH]2)cc1 (single isomer, unassigned) [Example 159]	0.0514	44.0	11.3	0.0781	–	–	11.5	0.0793	0.0403	–	–
CCCC1=NC2(CCOC2)C(=O)N1Cc1ccc(-c2cc(-c3ccccc3O)ccc2-c2nnn[nH]2)cc1 (single isomer, unassigned) [Example 160]	0.0878	50.2	15.8	0.132	–	–	18.6	0.0797	0.0985	–	–
CC1=NC2(CCOC2)C(=O)N1Cc1ccc(-c2cc(-c3ccccc3)ccc2-c2nn[nH]n2)cc1 (single isomer, unassigned) [Example 174, 3-((6′-(2H-tetrazol-5-yl)-[1,1′:3′,1″-terphenyl]-4-yl)methyl)-2-methyl-7-oxa-1,3-diazaspiro[4.4]non-1-en-4-one]	–	–	–	–	–	–	10.3	0.77	0.634	–	–
CCc1nc2c(C)cc(C)nc2n1Cc1ccc(-c2cc(-c3ncc(C)s3)ccc2-c2nn[nH]n2)cc1 [Example 68]	–	–	–	–	91.1	0.0153	41.7	0.015	–	–	–
CCc1nc2c(C)cc(C)nc2n1Cc1ccc(-c2cc(N3CCC4(CCOC4)C3)ccc2-c2nn[nH]n2)cc1 (centres unmarked) [Example 92]	–	–	51.1	1.4	66.5	0.309	17.8	0.278	–	–	–
CCCCC1=NC2(CCCC2)C(=O)N1Cc1ccc(-c2cc(-c3cccc(F)c3)ccc2-c2nn[nH]n2)cc1 [Example 127]	–	–	–	–	29.5	0.0173	–	> 10	–	82.7	0.0236
CC1=NC2(CCOCC2)C(=O)N1Cc1ccc(-c2cc(-c3cc(C)ccn3)ccc2-c2nn[nH]n2)cc1 [Example 173, 2-methyl-3-((5′-(4-methylpyridin-2-yl)-2′-(2H-tetrazol-5-yl)-[1,1′-biphenyl]-4-yl)methyl)-8-oxa-1,3-diazaspiro[4.5]dec-1-en-4-one]	–	–	–	–	–	–	19.3	0.0791	0.0804	–	–
CCc1nc2c(C)cc(C)nc2n1Cc1ccc(-c2cc(-n3cncc3C)ccc2-c2nnn[nH]2)cc1 [Example 220]	–	–	–	–	–	–	18.2	0.0368	0.036	–	–
CCc1nc2c(C)cc(C)nc2n1Cc1ccc(-c2cc(-n3cnc(C)c3)ccc2-c2nnn[nH]2)cc1 [Example 221]	–	–	–	–	–	–	5.4	0.028	0.159	–	–
CCc1nc2c(C)cc(C)nc2n1Cc1ccc(-c2cc(-n3cc(C)c(C)n3)ccc2-c2nnn[nH]2)cc1 [Example 223]	–	–	–	–	–	–	9.8	0.0059	0.0092	–	–
CCc1nc2c(C)cc(C)nc2n1Cc1ccc(-c2cc(-n3cc(C(F)(F)F)cn3)ccc2-c2nnn[nH]2)cc1 [Example 224]	–	–	–	–	–	–	20.8	0.0113	0.0076	–	–
CCc1nc2c(C)cc(C)nc2n1Cc1ccc(-c2cc(-c3cn(CC(F)F)nn3)ccc2-c2nnn[nH]2)cc1 [Example 242]	–	–	–	–	–	–	45.6	0.0416	0.0282	–	–
CCc1nc2c(C)cc(C)nc2n1Cc1ccc(-c2cc(Oc3cccc(F)n3)ccc2-c2nn[nH]n2)cc1 [Example 256]	–	–	–	–	–	–	30.5	0.043	0.0345	–	–
CCc1nc2c(C)cc(C)nc2n1Cc1ccc(-c2cc(Oc3cccnc3)ccc2-c2noc(=O)[nH]2)cc1 [Example 259]	0.0129	80.6	9.9	0.0211	–	–	–	–	0.0388	83.2	0.0069
CCOc1nc2cccc(C(=O)O)c2n1Cc1ccc(-c2cc(-c3ccc(C)cn3)ccc2-c2noc(=O)[nH]2)cc1 [Example 300, 2-ethoxy-1-((5′-(5-methylpyridin-2-yl)-2′-(5-oxo-4,5-dihydro-1,2,4-oxadiazol-3-yl)-[1,1′-biphenyl]-4-yl)methyl)-1H-benzo[d]imidazole-7-carboxylic acid]	–	–	–	–	–	–	25.1	0.009	0.0128	–	–
CCOc1nc2cccc(C(=O)O)c2n1Cc1ccc(-c2cc(-c3cc(OC)ccn3)ccc2-c2noc(=O)[nH]2)cc1 [Example 301]	–	–	–	–	–	–	31.2	0.0136	0.0148	–	–
CCOc1nc2cccc(C(=O)O)c2n1Cc1ccc(-c2cc(-c3cccc(C)n3)ccc2-c2noc(=O)[nH]2)cc1 [Example 304]	–	–	–	–	–	–	17.3	0.0297	0.0383	–	–
CCOc1nc2cccc(C(=O)O)c2n1Cc1ccc(-c2cc(-c3cnccn3)ccc2-c2noc(=O)[nH]2)cc1 [Example 307]	–	–	–	–	–	–	–	> 10	0.962	–	–
CCOc1nc2cccc(C(=O)O)c2n1Cc1ccc(-c2cc(N3CCC[C@@H](C)C3)ccc2-c2noc(=O)[nH]2)cc1 [Example 325]	–	–	–	–	–	–	–	> 10	0.201	–	–
CCOc1nc2cccc(C(=O)O)c2n1Cc1ccc(-c2cc(-n3cc(C)cn3)ccc2-c2nn[nH]n2)cc1 [Example 340]	–	–	–	–	–	–	17.3	0.0029	0.0058	–	–
CCOc1nc2cccc(C(=O)O)c2n1Cc1ccc(-c2cc(-n3cc4ccccc4n3)ccc2-c2nn[nH]n2)cc1 [Example 341]	–	–	–	–	–	–	18.8	0.0044	0.0122	–	–
CCOc1nc2cccc(C(=O)O)c2n1Cc1ccc(-c2cc(-n3ncc4ccccc43)ccc2-c2nn[nH]n2)cc1 [Example 342]	–	–	–	–	–	–	16.5	0.0033	0.0036	–	–
CCOc1nc2cccc(C(=O)O)c2n1Cc1ccc(-c2cc(OC3CCCCC3)ccc2-c2nn[nH]n2)cc1 [Example 343]	–	–	–	–	–	–	15.3	0.0267	0.0262	–	–
CCOc1nc2cccc(C(=O)O)c2n1Cc1ccc(-c2cc(-n3cc(C(C)C)nn3)ccc2-c2nn[nH]n2)cc1 [Example 344]	–	–	–	–	–	–	10.4	0.0168	0.767	–	–
CCCCc1nc(Cl)c(C(=O)O)n1Cc1ccc(-c2cc(Oc3cccnc3)ccc2-c2nn[nH]n2)cc1 [Example 428]	–	–	–	–	–	–	–	> 10	0.122	–	–
